Reference: patent publication US20110217771A1, “Fluidic Culture Device” (priority 2008, published 2011)

Target: T1, collagen I matrix (Bos taurus, UniProt P02453+P02465)
T1 construct: purchased PureCol (product name as printed)
Test: Gradient generation and characterization in the collagen I matrix of the culture chamber (fluorescence detection)
Protocol: Invasive angiogenic sprouting in three dimensions was studied by embedding organs or clusters of cells in a collagen I matrix composed of Ham's F12 medium (Promocell), 6.26 mM NaOH, 20 mM HEPES, 0.117% NaHCO3, 1% Glutamax-I (Gibco) and 1.5 mg/ml collagen I (PureCol). The flow channels were sealed prior to casting of the gel by the insertion of PDMS plugs. These were cut out a little wider than the channels (˜7×5×0.6 mm) to prevent the gel from leaking into the flow channels. The gel volume (20 μl) deposited in the culture chamber was approximately twice the size of the chamber volume to account for shrinkage and to make sure that the when the culture system was assembled the gel would be slightly compressed in order to occupy the entire culture chamber. […] The collagen gel was left to polymerize in a regular cell incubator at 37° C. and 5% CO2 for 2 hours. Organs or cell clusters were deposited into the center of the culture chamber using a Pasteur pipette in the beginning of the polymerization process. The tissue can be carefully positioned with a needle or by tapping the side of the culture chamber. Both organs and cells can be grown in the fluidic culture device in its open configuration with the culture chamber facing upwards for several days by adding cell media to cover the top of the open culture chamber.
Stock solutions of recombinant VEGFA165 (PeproTech), FGF2 (PeproTech) and VEGFC (R&D systems) were stored at −20° C. until further use. […]
Flow in the culture system was generated by connecting two syringes (connected to a syringe pump) to the channel inlets. […] No flow was recorded through the culture chamber when the flow rates in the source and sink channels were kept identical.
The gradient profile was initially characterized by detection of F-VEGFA. […] FIG. 10 illustrates time-lapse series of the central part of the culture chamber (1.7×1.3 mm) as a gradient of F-VEGFA is established; gradient formation in the culture chamber was detected by measuring the fluorescent signal. […] The profiles are recorded at the center of the chamber, indicated by black bar in FIG. 12. […]

[1] = collagen I matrix, flow 0.5 μl/min

T1 sequence (P02453 162-1217 limits assumed): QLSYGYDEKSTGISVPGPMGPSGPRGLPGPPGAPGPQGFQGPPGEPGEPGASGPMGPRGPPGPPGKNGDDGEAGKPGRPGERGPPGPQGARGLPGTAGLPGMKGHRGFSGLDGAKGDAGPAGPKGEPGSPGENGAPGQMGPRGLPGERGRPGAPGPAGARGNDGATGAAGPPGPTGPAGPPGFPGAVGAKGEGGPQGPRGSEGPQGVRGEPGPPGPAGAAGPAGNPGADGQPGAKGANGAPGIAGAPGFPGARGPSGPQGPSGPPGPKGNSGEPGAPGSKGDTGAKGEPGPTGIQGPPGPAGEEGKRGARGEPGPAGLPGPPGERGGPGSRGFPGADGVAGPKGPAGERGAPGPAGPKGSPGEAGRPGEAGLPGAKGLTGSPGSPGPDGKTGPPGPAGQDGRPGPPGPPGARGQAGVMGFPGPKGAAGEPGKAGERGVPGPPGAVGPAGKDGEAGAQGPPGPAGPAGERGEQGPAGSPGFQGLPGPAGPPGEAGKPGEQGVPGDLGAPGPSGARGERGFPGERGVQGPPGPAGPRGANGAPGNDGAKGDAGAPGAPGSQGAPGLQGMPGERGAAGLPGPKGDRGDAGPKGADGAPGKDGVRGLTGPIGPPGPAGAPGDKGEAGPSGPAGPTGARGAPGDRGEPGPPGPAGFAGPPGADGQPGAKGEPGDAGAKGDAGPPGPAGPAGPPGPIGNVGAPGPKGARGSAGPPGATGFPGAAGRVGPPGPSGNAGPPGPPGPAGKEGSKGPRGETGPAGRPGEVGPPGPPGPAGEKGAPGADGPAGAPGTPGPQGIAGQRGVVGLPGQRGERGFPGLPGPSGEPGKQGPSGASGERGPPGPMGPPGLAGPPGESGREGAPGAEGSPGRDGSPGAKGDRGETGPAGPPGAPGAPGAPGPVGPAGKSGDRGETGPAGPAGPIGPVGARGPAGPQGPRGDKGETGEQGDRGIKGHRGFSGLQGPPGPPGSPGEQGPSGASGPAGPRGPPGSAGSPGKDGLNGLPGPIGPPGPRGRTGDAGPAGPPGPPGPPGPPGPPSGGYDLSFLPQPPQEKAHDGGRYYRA
T1 sequence (P02465 80-1117 limits assumed): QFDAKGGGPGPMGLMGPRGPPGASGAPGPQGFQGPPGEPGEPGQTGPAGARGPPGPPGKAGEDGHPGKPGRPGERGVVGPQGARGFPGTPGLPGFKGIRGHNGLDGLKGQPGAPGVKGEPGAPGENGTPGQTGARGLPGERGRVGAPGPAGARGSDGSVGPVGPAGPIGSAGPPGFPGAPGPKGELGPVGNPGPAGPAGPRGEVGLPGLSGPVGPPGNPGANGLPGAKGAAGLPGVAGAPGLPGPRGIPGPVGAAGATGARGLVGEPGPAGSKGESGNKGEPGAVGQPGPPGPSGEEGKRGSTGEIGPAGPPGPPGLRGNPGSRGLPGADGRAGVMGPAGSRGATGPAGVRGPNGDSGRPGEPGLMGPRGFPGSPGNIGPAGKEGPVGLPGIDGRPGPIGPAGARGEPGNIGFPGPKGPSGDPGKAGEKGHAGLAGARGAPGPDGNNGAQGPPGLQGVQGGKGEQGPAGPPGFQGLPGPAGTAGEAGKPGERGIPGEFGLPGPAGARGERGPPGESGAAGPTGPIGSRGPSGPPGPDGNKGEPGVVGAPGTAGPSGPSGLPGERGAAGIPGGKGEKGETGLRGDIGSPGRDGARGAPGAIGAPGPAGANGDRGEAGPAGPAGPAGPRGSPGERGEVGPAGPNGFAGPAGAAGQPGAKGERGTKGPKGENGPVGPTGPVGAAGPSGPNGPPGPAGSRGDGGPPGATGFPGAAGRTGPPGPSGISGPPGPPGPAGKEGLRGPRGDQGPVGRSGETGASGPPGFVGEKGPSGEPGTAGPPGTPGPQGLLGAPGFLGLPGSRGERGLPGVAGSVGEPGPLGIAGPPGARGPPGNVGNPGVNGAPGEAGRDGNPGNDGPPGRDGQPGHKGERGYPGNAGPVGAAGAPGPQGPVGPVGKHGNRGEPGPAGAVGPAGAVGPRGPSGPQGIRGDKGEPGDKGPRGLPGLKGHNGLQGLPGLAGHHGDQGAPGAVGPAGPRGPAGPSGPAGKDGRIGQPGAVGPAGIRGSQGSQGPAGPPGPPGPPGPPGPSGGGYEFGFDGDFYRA

## FITC-dextran
1.5 mg/ml collagen I matrix
  affinity for collagen I (accumulation at the edge of the gel): little or no affinity for collagen I
[1]
  time after which the gradient was stable: approximately 6 hours
  time to formation of a linear gradient after onset of flow: ≤ 2 h
